{"source": "patent US6737383B1", "about": "“Herbicidal oxadiazolidines” (priority 1999, dated 2004)", "key": {"pigweed": {"tested_on": "pigweed", "experiment": "Test B pre/postemergence pigweed", "assay_type": "in vivo, Amaranthus retroflexus", "summary_of_the_method": "(§1)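 Response is a visual 0-to-10 score relative to untreated plants, where 0 means no effect and 10 means complete control, taken twelve to sixteen days after application. Treatments went onto soil at planting and onto foliage of 1- to 4-leaf plants, using a surfactant-containing non-phytotoxic solvent.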"}, "bamyardgrass": {"tested_on": "bamyardgrass", "experiment": "Test B flood test barnyardgrass", "assay_type": "in vivo, Echinochloa crus-galli", "summary_of_the_method": "(§2)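 Read-out is a visual response score from 0 (no effect) to 10 (complete control), assigned by comparison with untreated controls. Treatment was applied at the 2-leaf stage, and plants stayed in the greenhouse for twelve to sixteen days before scoring.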"}, "bedstraw": {"tested_on": "bedstraw", "experiment": "Test B pre/postemergence bedstraw", "assay_type": "in vivo, Galium aparine", "summary_of_the_method": "as §1"}, "corn": {"tested_on": "corn", "experiment": "Test B pre/postemergence corn", "assay_type": "in vivo, Zea mays", "summary_of_the_method": "as §1"}, "wild oat": {"tested_on": "wild oat", "experiment": "Test B pre/postemergence wild oat", "assay_type": "in vivo, Avena fatua", "summary_of_the_method": "as §1"}, "smallflower flatsedge": {"tested_on": "smallflower flatsedge", "experiment": "Test B flood test smallflower flatsedge", "assay_type": "in vivo, Cyperus difformis", "summary_of_the_method": "as §2"}, "morningglory": {"tested_on": "morningglory", "experiment": "Test B pre/postemergence morningglory", "assay_type": "in vivo, Ipomoea hederacea", "summary_of_the_method": "as §1"}, "rice": {"tested_on": "rice", "experiment": "Test B flood test rice", "assay_type": "in vivo, Oryza sativa", "summary_of_the_method": "as §2"}, "rape": {"tested_on": "rape", "experiment": "Test B pre/postemergence rape", "assay_type": "in vivo, Brassica napus", "summary_of_the_method": "as §1"}, "cocklebur": {"tested_on": "cocklebur", "experiment": "Test B pre/postemergence cocklebur", "assay_type": "in vivo, Xanthium strumarium", "summary_of_the_method": "as §1"}, "crabgrass": {"tested_on": "crabgrass", "experiment": "Test B pre/postemergence crabgrass", "assay_type": "in vivo, Digitaria sanguinalis", "summary_of_the_method": "as §1"}, "soybean": {"tested_on": "soybean", "experiment": "Test B pre/postemergence soybean", "assay_type": "in vivo, Glycine max", "summary_of_the_method": "as §1"}, "sugar beet": {"tested_on": "sugar beet", "experiment": "Test B pre/postemergence sugar beet", "assay_type": "in vivo, Beta vulgaris", "summary_of_the_method": "as §1"}, "duck salad": {"tested_on": "duck salad", "experiment": "Test B flood test duck salad", "assay_type": "in vivo, Heteranthera limosa", "summary_of_the_method": "as §2"}, "velvetleaf": {"tested_on": "velvetleaf", "experiment": "Test B pre/postemergence velvetleaf", "assay_type": "in vivo, Abutilon theophrasti", "summary_of_the_method": "as §1"}, "surinam grass": {"tested_on": "surinam grass", "experiment": "Test B pre/postemergence surinam grass", "assay_type": "in vivo, Brachiaria decumbens", "summary_of_the_method": "as §1"}, "[1]": {"conditions": "Postemergence, Rate 62 g/ha, scale 0 to 10, 0 is no effect, 10 is complete control"}, "[2]": {"conditions": "Postemergence, Rate 250 g/ha, scale 0 to 10, 0 no effect, 10 complete control"}, "[3]": {"conditions": "Preemergence, Rate 31 g/ha, visual rating, scale 0 to 10 (0 no effect, 10 complete control)"}, "[4]": {"conditions": "Preemergence, Rate 62 g/ha, scale 0 to 10, 0 is no effect, 10 is complete control"}, "[5]": {"conditions": "Preemergence, Rate 125 g/ha, scale 0 to 10 (0 no effect, 10 complete control)"}, "[6]": {"conditions": "Preemergence, Rate 250 g/ha, scale of 0 to 10 where 0 is no effect and 10 is complete control"}, "[7]": {"conditions": "Rate 31 g/ha, Postemergence, scale 0 to 10"}, "[8]": {"conditions": "Rate 125 g/ha, Postemergence, scale 0 to 10, 0 no effect, 10 complete control"}, "[9]": {"conditions": "Rate 125 g/ha, Postemergence section (flood test species), scale 0 to 10, 0 no effect, 10 complete control"}, "[10]": {"conditions": "Rate 500 g/ha, Postemergence section of Table B, 0 to 10 scale (0 no effect, 10 complete control)"}, "[11]": {"conditions": "flood test, listed under Postemergence, Rate 250 g/ha, scale 0 to 10, 0 no effect, 10 complete control"}}, "data": [{"compound": "COc1ccccc1-n1c(=O)on(C(=O)N(c2ccc(F)cc2F)C(C)C)c1=O", "note": "[Compound 31]", "values": [{"measurement": "Redroot pigweed plant response rating", "setting": "pigweed; [1]", "value": 0}, {"measurement": "Redroot pigweed plant response rating", "setting": "pigweed; [2]", "value": 0}, {"measurement": "Redroot pigweed plant response rating", "setting": "pigweed; [3]", "value": 0}, {"measurement": "Plant response rating, Redroot pigweed", "setting": "pigweed; [4]", "value": 0}, {"measurement": "Plant response rating, Redroot pigweed", "setting": "pigweed; [5]", "value": 0}, {"measurement": "Plant response rating, Redroot pigweed", "setting": "pigweed; [6]", "value": 3}, {"measurement": "Redroot pigweed plant response rating", "setting": "pigweed; [7]", "value": 0}, {"measurement": "Redroot pigweed plant response rating", "setting": "pigweed; [8]", "value": 0}, {"measurement": "Barnyardgrass plant response rating", "setting": "bamyardgrass; [1]", "value": 0}, {"measurement": "Barnyardgrass plant response rating", "setting": "bamyardgrass; [9]", "value": 0}, {"measurement": "Barnyardgrass plant response rating", "setting": "bamyardgrass; [10]", "value": 0}, {"measurement": "Barnyardgrass plant response rating", "setting": "bamyardgrass; [11]", "value": 0}, {"measurement": "Bedstraw plant response rating", "setting": "bedstraw; [1]", "value": 0}, {"measurement": "Bedstraw plant response rating", "setting": "bedstraw; [2]", "value": 0}, {"measurement": "Bedstraw plant response rating", "setting": "bedstraw; [3]", "value": 0}, {"measurement": "Plant response rating, Bedstraw", "setting": "bedstraw; [4]", "value": 0}, {"measurement": "Plant response rating, Bedstraw", "setting": "bedstraw; [5]", "value": 0}, {"measurement": "Plant response rating, Bedstraw", "setting": "bedstraw; [6]", "value": 0}, {"measurement": "Bedstraw plant response rating", "setting": "bedstraw; [7]", "value": 0}, {"measurement": "Bedstraw plant response rating", "setting": "bedstraw; [8]", "value": 0}, {"measurement": "Corn plant response rating", "setting": "corn; [1]", "value": 0}, {"measurement": "Corn plant response rating", "setting": "corn; [2]", "value": 0}, {"measurement": "Corn plant response rating", "setting": "corn; [3]", "value": 0}, {"measurement": "Plant response rating, Corn", "setting": "corn; [4]", "value": 0}, {"measurement": "Plant response rating, Corn", "setting": "corn; [5]", "value": 0}, {"measurement": "Plant response rating, Corn", "setting": "corn; [6]", "value": 0}, {"measurement": "Corn plant response rating", "setting": "corn; [7]", "value": 0}, {"measurement": "Corn plant response rating", "setting": "corn; [8]", "value": 0}, {"measurement": "Wild oats plant response rating", "setting": "wild oat; [1]", "value": 0}, {"measurement": "Wild oats plant response rating", "setting": "wild oat; [2]", "value": 0}, {"measurement": "Wild oats plant response rating", "setting": "wild oat; [3]", "value": 0}, {"measurement": "Plant response rating, Wild oats", "setting": "wild oat; [5]", "value": 2}, {"measurement": "Plant response rating, Wild oats", "setting": "wild oat; [6]", "value": 4}, {"measurement": "Wild oats plant response rating", "setting": "wild oat; [8]", "value": 0}, {"measurement": "S. Flatsedge plant response rating", "setting": "smallflower flatsedge; [1]", "value": 0}, {"measurement": "S. Flatsedge plant response rating", "setting": "smallflower flatsedge; [9]", "value": 0}, {"measurement": "S. Flatsedge plant response rating", "setting": "smallflower flatsedge; [11]", "value": 0}, {"measurement": "Morningglory plant response rating", "setting": "morningglory; [1]", "value": 0}, {"measurement": "Morningglory plant response rating", "setting": "morningglory; [2]", "value": 3}, {"measurement": "Morningglory plant response rating", "setting": "morningglory; [3]", "value": 0}, {"measurement": "Plant response rating, Morningglory", "setting": "morningglory; [4]", "value": 0}, {"measurement": "Plant response rating, Morningglory", "setting": "morningglory; [5]", "value": 0}, {"measurement": "Plant response rating, Morningglory", "setting": "morningglory; [6]", "value": 0}, {"measurement": "Morningglory plant response rating", "setting": "morningglory; [7]", "value": 0}, {"measurement": "Morningglory plant response rating", "setting": "morningglory; [8]", "value": 1}, {"measurement": "Rice plant response rating", "setting": "rice; [1]", "value": 0}, {"measurement": "Rice plant response rating", "setting": "rice; [9]", "value": 0}, {"measurement": "Rice plant response rating", "setting": "rice; [10]", "value": 0}, {"measurement": "Rice plant response rating", "setting": "rice; [11]", "value": 0}, {"measurement": "Rape plant response rating", "setting": "rape; [1]", "value": 0}, {"measurement": "Rape plant response rating", "setting": "rape; [2]", "value": 0}, {"measurement": "Rape plant response rating", "setting": "rape; [3]", "value": 0}, {"measurement": "Plant response rating, Rape", "setting": "rape; [4]", "value": 0}, {"measurement": "Plant response rating, Rape", "setting": "rape; [5]", "value": 0}, {"measurement": "Plant response rating, Rape", "setting": "rape; [6]", "value": 4}, {"measurement": "Rape plant response rating", "setting": "rape; [7]", "value": 0}, {"measurement": "Rape plant response rating", "setting": "rape; [8]", "value": 0}, {"measurement": "Cocklebur plant response rating", "setting": "cocklebur; [1]", "value": 0}, {"measurement": "Cocklebur plant response rating", "setting": "cocklebur; [2]", "value": 1}, {"measurement": "Cocklebur plant response rating", "setting": "cocklebur; [3]", "value": 0}, {"measurement": "Plant response rating, Cocklebur", "setting": "cocklebur; [4]", "value": 0}, {"measurement": "Plant response rating, Cocklebur", "setting": "cocklebur; [5]", "value": 0}, {"measurement": "Plant response rating, Cocklebur", "setting": "cocklebur; [6]", "value": 0}, {"measurement": "Cocklebur plant response rating", "setting": "cocklebur; [7]", "value": 0}, {"measurement": "Cocklebur plant response rating", "setting": "cocklebur; [8]", "value": 0}, {"measurement": "Crabgrass plant response rating", "setting": "crabgrass; [1]", "value": 0}, {"measurement": "Crabgrass plant response rating", "setting": "crabgrass; [2]", "value": 9}, {"measurement": "Crabgrass plant response rating", "setting": "crabgrass; [3]", "value": 2}, {"measurement": "Plant response rating, Crabgrass", "setting": "crabgrass; [4]", "value": 9}, {"measurement": "Plant response rating, Crabgrass", "setting": "crabgrass; [5]", "value": 9}, {"measurement": "Plant response rating, Crabgrass", "setting": "crabgrass; [6]", "value": 9}, {"measurement": "Crabgrass plant response rating", "setting": "crabgrass; [7]", "value": 0}, {"measurement": "Crabgrass plant response rating", "setting": "crabgrass; [8]", "value": 2}, {"measurement": "Soybean plant response rating", "setting": "soybean; [1]", "value": 1}, {"measurement": "Soybean plant response rating", "setting": "soybean; [2]", "value": 1}, {"measurement": "Soybean plant response rating", "setting": "soybean; [3]", "value": 0}, {"measurement": "Plant response rating, Soybean", "setting": "soybean; [4]", "value": 0}, {"measurement": "Plant response rating, Soybean", "setting": "soybean; [5]", "value": 0}, {"measurement": "Plant response rating, Soybean", "setting": "soybean; [6]", "value": 0}, {"measurement": "Soybean plant response rating", "setting": "soybean; [8]", "value": 1}, {"measurement": "Sugarbeets plant response rating", "setting": "sugar beet; [1]", "value": 0}, {"measurement": "Sugarbeets plant response rating", "setting": "sugar beet; [2]", "value": 0}, {"measurement": "Sugarbeets plant response rating", "setting": "sugar beet; [3]", "value": 0}, {"measurement": "Plant response rating, Sugarbeets", "setting": "sugar beet; [4]", "value": 0}, {"measurement": "Plant response rating, Sugarbeets", "setting": "sugar beet; [5]", "value": 0}, {"measurement": "Plant response rating, Sugarbeets", "setting": "sugar beet; [6]", "value": 0}, {"measurement": "Sugarbeets plant response rating", "setting": "sugar beet; [8]", "value": 0}, {"measurement": "Ducksalad plant response rating", "setting": "duck salad; [1]", "value": 0}, {"measurement": "Ducksalad plant response rating", "setting": "duck salad; [9]", "value": 0}, {"measurement": "Ducksalad plant response rating", "setting": "duck salad; [10]", "value": 0}, {"measurement": "Ducksalad plant response rating", "setting": "duck salad; [11]", "value": 0}, {"measurement": "Velvetleaf plant response rating", "setting": "velvetleaf; [1]", "value": 0}, {"measurement": "Velvetleaf plant response rating", "setting": "velvetleaf; [2]", "value": 0}, {"measurement": "Velvetleaf plant response rating", "setting": "velvetleaf; [3]", "value": 0}, {"measurement": "Plant response rating, Velvetleaf", "setting": "velvetleaf; [4]", "value": 0}, {"measurement": "Plant response rating, Velvetleaf", "setting": "velvetleaf; [5]", "value": 0}, {"measurement": "Plant response rating, Velvetleaf", "setting": "velvetleaf; [6]", "value": 0}, {"measurement": "Velvetleaf plant response rating", "setting": "velvetleaf; [8]", "value": 0}, {"measurement": "B. signalgrass plant response rating", "setting": "surinam grass; [1]", "value": 0}, {"measurement": "B. signalgrass plant response rating", "setting": "surinam grass; [2]", "value": 0}, {"measurement": "B. signalgrass plant response rating", "setting": "surinam grass; [3]", "value": 0}, {"measurement": "Plant response rating, B. signalgrass", "setting": "surinam grass; [4]", "value": 0}, {"measurement": "Plant response rating, B. signalgrass", "setting": "surinam grass; [5]", "value": 0}, {"measurement": "Plant response rating, B. signalgrass", "setting": "surinam grass; [6]", "value": 6}, {"measurement": "B. signalgrass plant response rating", "setting": "surinam grass; [7]", "value": 0}, {"measurement": "B. signalgrass plant response rating", "setting": "surinam grass; [8]", "value": 0}]}]}
